Data: patent US20090221441A1, “THREE-DIMENSIONAL CELLULAR ARRAY CHIP AND PLATFORM FOR TOXICOLOGY ASSAYS” (Rensselaer Polytechnic Institute, priority 2005, published 2009)
Where two headings read alike, the source gives them in different places.

What was measured:
MCF7 cells [1] = details: read-out: IC50, 2D literature values; 2D cultures in 96-well plates, Refs 1-5; cited from earlier work
[2] = Cytotoxicity of compounds and their P450-generated metabolites, Hep3B DataChip stamped with MetaChip; details: human
Procedure: (§1) The cytotoxicity of drugs (or drug metabolites) was determined by staining the slide containing the cells with a Live/Dead test kit (Molecular Probes) that produces a green fluorescent response from living cells. At the end of the 3-day culture period post stamping, the three-dimensional cell chip (DataChip) was rinsed three times in PBS for 5 min each. One mL of a dye solution containing 0.5 μM calcein AM was applied to each three-dimensional cell chip using a glass slide with 1 mm thick perimeter gasket acting as a barrier to prevent loss of the dye solution.
(§2) Following incubation for 50 minutes at room temperature, excess dye in the collagen-gel drops was removed by incubating the slides in a petri dish containing 16 mL of PBS for 30 min on a gyratory shaker at 60 rpm. The three-dimensional cell chip was dried thoroughly with nitrogen. The three-dimensional cell chip was scanned with the GenePix® Professional 4200A scanner equipped with blue laser and standard blue filter to determine the green fluorescent intensity and was quantified from the scanning image using GenePix Pro 6.0 (Molecular Devices Co.).
(§3) Percent live cells=(FReaction/FMax)×100
(§4) where FReaction is the green fluorescence intensity of the reaction spot and FMax is the green fluorescence intensity of untreated fully viable cells.
(§5) For efficient stamping, MTMOS-coated glass slides were prepared to contain a sol-gel barrier on the periphery of the slides.
(§6) To this end […] of methyltrimethoxysilane (MTMOS) sol was prepared by mixing 2 mL of MTMOS with 1 mL of HCl (10 mM) and sonicated for 10 min. The sol was spotted on the periphery of the MTMOS-coated slide and then the slide was baked in an oven for 30 min at 120° C.
(§7) The MetaChip was stored at −80° C. for 1 day prior to use. Cytotoxicity studies were performed by spotting 20 nL of test compound in distilled water (0-2 mM) onto the MetaChip spots and partially dried.
(§8) This was followed by stamping of the three-dimensional cell chip (DataChip) containing either MCF7 or Hep3B cells onto the MetaChip.
(§9) To this end, a MetaChip consisting of 20×54 alginate spots was prepared; each spot containing a single human P450 isoform (CYP1A2, CYP2D6, or CYP3A4), a mixture of the three isoforms, or no P450 as a test compound only control. Addition of test compounds was carried out by overlay spotting of solutions of these compounds onto the MetaChip, which was then stamped on top of the DataChip.
(§10) Using three DataChips in combination with three MetaChips, IC50 values for 27 compounds and their P450-generated metabolites against human Hep3B cells were determined. […] The three P450 isoforms were used along with an equimolar mixture of the three isoforms and a test compound only control without P450. The test compounds were added to the MetaChip, which was then stamped onto the DataChip and incubated for 6 h. This was followed by removing the DataChip, rinsing with growth medium, incubating in media for 3 days, and then stained for cell viability.

human Hep3B cells = assay: in vitro
Procedure: as §1, §2, §3, §4, §5, §6, §7, §8, §9, §10

MCF7 cells [3] = assay: cells; details: Homo sapiens, MCF7, read-out: Calculated IC50, Alginate DataChip (MCF7)
Procedure: as §1, §2, §3, §4
(§11) The alginate-containing three-dimensional cell chip (DataChip) was prepared as follows. A poly-L-lysine (PLL)-barium mixture was prepared by mixing equal volume of sterile PLL (0.01 w/v % from Sigma) and barium chloride solution in distilled water (0.1 M from Sigma).
(§12) A suspension of cells in low-viscosity alginate (from Sigma) was prepared by mixing a Hep3B cell suspension in 5% FBS-supplemented DMEM with alginate solution in distilled water so that the final concentration of cells and alginate are 6×10^6 cells/mL and 1% (w/v), respectively.
(§13) Following spotting and drying of 10 nL PLL-barium mixture on the PS-MA-treated slide, 20-nL of the cell suspension (MCF7 or HepB3; cell density of 6×10^6 cells/mL or 120 cells per spot) in alginate was spotted atop each PLL-barium spot.

[4] = tested on: Hep3B human hepatoma cells; assay: cells; details: read-out: Calculated IC50, Alginate DataChip (Hep3B)
Procedure: as §1, §2, §3, §4, §11, §12, §13

[5] = tested on: MCF7 human breast cancer cells; assay: cells
Procedure: as §1

MCF7 cells [6] = assay: cells; details: Homo sapiens
MCF7 cells [7] = assay: cells; details: Homo sapiens; remark: listed apart in the source
[8] = P450 activity determination with blue fluorogenic substrates in 384-well plate; type: biochemical, human
Procedure: To assess the intrinsic reactivity of P450s in alginate matrices, reactions were performed in wells of a 384-well plate. P450-containing alginate sol was prepared by dispensing 24 μL of P450 baculosomes (1 nmol P450/mL), 36 μL of distilled water, and 60 μL of alginate (2%) in distilled water. Five microliters of this solution were spotted onto 5 μL of the dried PLL-barium spot in a 384-well. Followed by storage of the P450-alginate gel drops at −80° C. for 1 day, 25 μL of blue fluorogenic substrates (BOMCC for CYP3A4 and EOMCC for CYP1A2 and CYP2D6) containing 250 μM NADP^+ and its regeneration system (8 mM glucose-6-phosphate and 1 U/mL glucose-6-phosphate dehydrogenase) in 50 mM potassium phosphate buffer (pH 8) were dispensed onto the thawed P450-alginate gel drop.
As a control, soluble P450 without alginate was also used. The blue fluorescent 7-hydroxycoumarin released by P450-catalyzed oxidation of BOMCC or EOMCC was monitored as a function of time using a BioAssay Reader HTS 7000 Plus (Perkin Elmer, Norwalk, Conn.) at an excitation wavelength of 430 nm and emission wavelength of 497 nm.

[9] = IC50, CYP1A2, Hep3B DataChip, MetaChip spots with CYP1A2
[10] = IC50, CYP2D6, Hep3B DataChip, MetaChip spots with CYP2D6
[11] = IC50, CYP3A4, Hep3B DataChip, MetaChip spots with CYP3A4
[12] = IC50, Mixture, Hep3B DataChip, equimolar mixture of CYP1A2, CYP2D6, CYP3A4
[13] = IC50, No P450, Hep3B DataChip, test compound only control without P450
[14] = MCF7, read-out: Calculated IC50, Collagen DataChip (MCF7)
[15] = MCF7, read-out: IC50 evaluated on the DataChip
[16] = MCF7, read-out: Calculated IC50, 2D 96-well plate
[17] = MCF7, read-out: IC50 from 2D control in the 96-well plate
[18] = MCF7, read-out: Calculated IC50, 3D 96-well plate
[19] = MCF7, read-out: IC50 from 3D control
[20] = Soluble enzyme (control, in solution)

Molecule	IC50 (MCF7 cells [1])	IC50 at 6 h [2, 9]	IC50 at 6 h [2, 10]	IC50 at 6 h [2, 11]	IC50 at 6 h [2, 12]	IC50 at 6 h [2, 13]	IC50 (MCF7 cells [3])	IC50 [4]	IC50 [5, 14]	IC50 [5, 15]	IC50 (MCF7 cells [6]; [16])	IC50 (MCF7 cells [6]; [17])	IC50 (MCF7 cells [7]; [18])	IC50 (MCF7 cells [7]; [19])	Km ([8]; In Alginate)	kcat ([8]; In Alginate)	Km [8, 20]	kcat [8, 20]	further results
O=c1[nH]cc(F)c(=O)[nH]1 [5-Fluorouracil, 5-fluorouracil]	4.1 to 30 µM	218 ± 44.3 µM	132 ± 20.7 µM	349 ± 72.3 µM	436 ± 77 µM	196 ± 27.2 µM	84.6 ± 18.7 µM	66.1 ± 8.8 µM	82.4 ± 10.3 µM	51.5 ± 3.3 µM	68.9 ± 13.5 µM	41.7 ± 4.6 µM	49 ± 3 µM	34.7 ± 1.2 µM	–	–	–	–	Activation or deactivation of the toxic response by CYP3A4 (human Hep3B cells): deactivated
COc1cccc2c1C(=O)c1c(O)c3c(c(O)c1C2=O)C[C@@](O)(C(=O)CO)C[C@@H]3O[C@H]1C[C@H](N)[C@H](O)[C@H](C)O1 [Doxorubicin, doxorubicin]	0.01 to 55 µM	1.01 ± 0.22 µM	4.94 ± 1.36 µM	19.3 ± 5.45 µM	9.71 ± 2.22 µM	0.69 ± 0.01 µM	0.19 ± 0.08 µM	0.29 ± 0.09 µM	0.43 ± 0.09 µM	0.869 ± 0.057 µM	0.06 ± 0.01 µM	0.0647 ± 0.0044 µM	0.23 ± 0.02 µM	69.2 ± 3 µM	–	–	–	–	IC50 at 6 h ([2]; IC50 values, Hep3B DataChip): < 1 µM; Activation or deactivation of the toxic response by CYP2D6 (human Hep3B cells): activated
CYP1A2: human P450 isoform (baculosomes), soluble or encapsulated in alginate; assayed with EOMCC (protein, UniProt P05177 2-516, looked up) Cytochrome P450 1A2: ALSQSVPFSATELLLASAIFCLVFWVLKGLRPRVPKGLKSPPEPWGWPLLGHVLTLGKNPHLALSRMSQRYGDVLQIRIGSTPVLVLSRLDTIRQALVRQGDDFKGRPDLYTSTLITDGQSLTFSTDSGPVWAARRRLAQNALNTFSIASDPASSSSCYLEEHVSKEAKALISRLQELMAGPGHFDPYNQVVVSVANVIGAMCFGQHFPESSDEMLSLVKNTHEFVETASSGNPLDFFPILRYLPNPALQRFKAFNQRFLWFLQKTVQEHYQDFDKNSVRDITGALFKHSKKGPRASGNLIPQEKIVNLVNDIFGAGFDTVTTAISWSLMYLVTKPEIQRKIQKELDTVIGRERRPRLSDRPQLPYLEAFILETFRHSSFLPFTIPHSTTRDTTLNGFYIPKKCCVFVNQWQVNHDPELWEDPSEFRPERFLTADGTAINKPLSEKMMLFGMGKRRCIGEVLAKWEIFLFLAILLQQLEFSVPPGVKVDLTPIYGLTMKHARCEHVQARLRFSIN	–	–	–	–	–	–	–	–	–	–	–	–	–	–	3.61 ± 0.43 µM	0.0085 ± 0.00517 s⁻¹	5.78 ± 0.8 µM	0.0225 ± 0.0013 s⁻¹	–
CYP2D6: human P450 isoform (baculosomes), soluble or encapsulated in alginate; assayed with EOMCC (protein, UniProt P10635 1-497, looked up) Cytochrome P450 2D6: MGLEALVPLAVIVAIFLLLVDLMHRRQRWAARYPPGPLPLPGLGNLLHVDFQNTPYCFDQLRRRFGDVFSLQLAWTPVVVLNGLAAVREALVTHGEDTADRPPVPITQILGFGPRSQGVFLARYGPAWREQRRFSVSTLRNLGLGKKSLEQWVTEEAACLCAAFANHSGRPFRPNGLLDKAVSNVIASLTCGRRFEYDDPRFLRLLDLAQEGLKEESGFLREVLNAVPVLLHIPALAGKVLRFQKAFLTQLDELLTEHRMTWDPAQPPRDLTEAFLAEMEKAKGNPESSFNDENLRIVVADLFSAGMVTTSTTLAWGLLLMILHPDVQRRVQQEIDDVIGQVRRPEMGDQAHMPYTTAVIHEVQRFGDIVPLGVTHMTSRDIEVQGFRIPKGTTLITNLSSVLKDEAVWEKPFRFHPEHFLDAQGHFVKPEAFLPFSAGRRACLGEPLARMELFLFFTSLLQHFSFSVPTGQPRPSHHGVFAFLVSPSPYELCAVPR	–	–	–	–	–	–	–	–	–	–	–	–	–	–	6.37 ± 1.25 µM	0.0012 ± 0.00017 s⁻¹	12.5 ± 4.64 µM	0.002 ± 0.0005 s⁻¹	–
